Experimental data: patent publication US20090105301A1, “9A-SUBSTITUTED AZALIDES FOR THE TREATMENT OF MALARIA” (priority 2006, published 2009)
≈ marks a conversion by molar mass, not a printed value.

Experiments:
[1] = test system: Plasmodium falciparum strain W2; assay: In vitro screening protocol II, [3H] hypoxanthine incorporation IC50 assay, W2; assay type: cell-based; conditions: P. falciparum W2; for IC50: Plasmodium falciparum
Procedure: (§1) The protocol described here is a modification of the in vitro screening protocol I and the details of the methodology are given below.
(§2) Plasmodium falciparum strains 3D7A and W2.
(§3) The culture medium comprised RPMI 1640 with 25 mM HEPES, sodium bicarbonate and glutamine (GIBCO™ cat. ref.: 52400), supplemented with 10% of pooled human sera AB (Bioreclamation HMSRM-AB)) and HT supplement (0.15 mM hypoxanthine and 24 μM thymidine), (GIBCO™ cat. ref.: 41065). Human sera were decomplemented 30 min. at 56° C., aliquoted and stored frozen at −20° C. until use in this culture medium.
(§4) This culture medium (“complete medium”) was usually prepared fresh just before use and pre-warmed to 37° C.
(§5) Red blood cells AB− stock suspensions were prepared from whole blood bags coming from incomplete blood donation, provided by the Spanish Red Cross (<25 days after sampling). This “whole blood” was aliquoted and stored at 4° C.
(§6) To prepare red blood cells for the assay, the whole blood was centrifuged and washed 3 times with RPMI without serum. The upper phase, containing white blood cells was removed. The washed red blood cells were kept as a 50% suspension in complete medium. The prepared cells were stored at 4° C. and were employed in the assay at any time up to 4 days after preparation.
(§7) Test compounds were dissolved at 2 mg/ml in 100% DMSO on the day of the assay. If necessary, complete dissolution was achieved by gentle heating (the mixture was heated at a temperature <37° C.) and sonication (sonication bath).
(§8) For IC50 determinations, 10 serial 2-fold dilutions were prepared in complete medium in the presence of a constant amount of DMSO. Any obvious signs of insolubility of the stock solutions in 100% DMSO or precipitation when these solutions were diluted in assay media, were recorded.
(§9) Plasmodium falciparum strains were maintained in complete medium at 5% of hematocrit in continuous culture using a method adapted from Trager W. and Jensen J. B. (Human malaria parasites in continuous culture Science 193 (4254) (1976) 673-675) and Trager W. (Cultivation of malaria parasites Methods Cell Biol. 45 (1994) 7-26).
(§10) The parasitemia was calculated by counting the percentage of parasitized erythrocytes by optical microscopy. Thin films of blood were made every day from each culture flask, fixed with methanol and stained for 10 min. in Giemsa (Merck, cat ref.: 1.09204) at 10% in buffered water pH 7.2. The glass slides were observed and counted with an optical microscope (Nikon, Eclipse E200) equipped with a 100× immersion oil objective.
(§11) The culture was maintained at 5% of hematocrit, with a daily change of medium and was diluted when parasitemia had reached about 5%.
(§12) [^3H] Hypoxanthine incorporation assay was conducted using a method adapted from Desjardins R. E. et al. (Quantitative assessment of antimalarial activity in vitro by a semiautomated microdilution technique. Antimicrob. Agents Chemother., 16 (6) (1979) 710-718). The assays were performed in 96 wells flat bottom microplates.
(§13) 1. Serial dilutions of each test compound (25 μl of a 5× solution/well) were deposited in one row of assay microtiter plate. Compounds of this invention were tested in this assay. Chloroquine and Azithromycin were used as control compounds for each assay.
(§14) 2. […] 100 μl of the resulting suspension was distributed into each well of columns 1-11 of assay microtiter plate leading to a final volume of 125 μl per well, at 1.2% of hematocrit and 0.4% of parasitemia/well.
(§15) 3. In each plate, 2 columns were reserved for control wells: • Column 11 (comprising wells A11-H11): Positive control wells: Untreated PRBCs to compare with cultures treated with test compounds. • Column 12 (comprising wells A12-H12): • Background value wells: Uninfected RBCs—blank control to obtain the background reading from RBCs without parasites (at 1.2% of hematocrite value).
(§16) 4. The plates were incubated at 37° C. under low oxygen atmosphere. […]

[2] = test system: Plasmodium falciparum strain 3D7A; assay: In vitro screening protocol II, [3H] hypoxanthine incorporation IC50 assay, 3D7A; assay type: cell-based; conditions: P. falciparum 3D7A; for IC50: Plasmodium falciparum
Procedure: as §1, §2, §3, §4, §5, §6, §7, §8, §9, §10, §11, §12, §13, §14, §15, §16

Molecule | IC50 W2 [1] | IC50 3D7A [2] | IC50 [1] [µg/mL] | IC50 [2] [µg/mL]
CCC1OC(=O)C(C)C(OC2CC(C)(OC)C(O)C(C)O2)C(C)C(OC2OC(C)CC(N(C)C)C2O)C(C)(O)CC(C)CN(CCCNC(=O)c2cc(Cl)ccc2[N+](=O)[O-])C(C)C(O)C1(C)O.O=CO (stereo not shown) [Example 66, 9a-(3-{[(5-Chloro-2-nitrophenyl)carbonyl]amino}propyl)-9-deoxo-9-dihydro-9a-aza-9a-homoerythromycin A Formiate Salt] | C (200 < X ≦ 1000) | D (1000 < X ≦ 2500) |  | 
CC(=O)O.CC(=O)O.CC(=O)O.CCC1OC(=O)C(C)C(O)C(C)C(OC2OC(C)CC(N(C)C)C2O)C(C)(O)CC(C)CN(CCCNc2ccnc3cc(Cl)ccc23)C(C)C(O)C1(C)O (stereo not shown) [Example 79] | A (X ≦ 100) | A (X ≦ 100) |  | 
CC(=O)O.CC(=O)O.CC[C@H]1OC(=O)[C@H](C)[C@@H](O[C@H]2C[C@@](C)(OC)[C@@H](O)[C@H](C)O2)[C@H](C)[C@@H](O[C@@H]2O[C@H](C)C[C@H](N(C)C)[C@H]2O)[C@](C)(O)C[C@@H](C)CN(CCCNC(=O)CCc2ccccc2)[C@H](C)[C@@H](O)[C@]1(C)O [Example 47, 9a-{3-[(3-Phenylpropanoyl)amino]propyl}-9a-aza-9-deoxo-9-dihydro-9a-homoerythromycin A Diacetate Salt] | D (1000 < X ≦ 2500) | D (1000 < X ≦ 2500) |  | 
CC[C@H]1OC(=O)[C@H](C)[C@@H](O[C@H]2C[C@@](C)(OC)[C@@H](O)[C@H](C)O2)[C@H](C)[C@@H](O[C@@H]2O[C@H](C)C[C@H](N(C)C)[C@H]2O)[C@](C)(O)C[C@@H](C)CN(CCCNC(=O)CCc2ccc(F)cc2)[C@H](C)[C@@H](O)[C@]1(C)O.O=CO [Example 70, 9a-(3-{[3-(4-Fluorophenyl)propanoyl]amino}propyl)-9-deoxo-9-dihydro-9a-aza-9a-homoerythromycin A Formiate Salt] | C (200 < X ≦ 1000) | D (1000 < X ≦ 2500) |  | 
9a-(3-{[(4-Nitrophenyl)acetyl]amino}propyl)-9-deoxo-9-dihydro-9a-aza-9a-homoerythromycin A Formiate Salt [Example 64] | C (200 < X ≦ 1000) | D (1000 < X ≦ 2500) |  | 
CCC1OC(=O)C(C)C(OC2CC(C)(OC)C(O)C(C)O2)C(C)C(OC2OC(C)CC(N(C)C)C2O)C(C)(O)CC(C)CN(CCCNC(=O)Cc2ccc(F)cc2)C(C)C(O)C1(C)O.O=CO (stereo not shown) [Example 68, 9a-(3-{[(4-Fluorophenyl)acetyl]amino}propyl)-9-deoxo-9-dihydro-9a-aza-9a-homoerythromycin A Formiate Salt] | C (200 < X ≦ 1000) | F (2800 < X ≦ 3500) |  | 
CC[C@H]1OC(=O)[C@H](C)[C@@H](O[C@H]2C[C@@](C)(OC)[C@@H](O)[C@H](C)O2)[C@H](C)[C@@H](O[C@@H]2O[C@H](C)C[C@H](N(C)C)[C@H]2O)[C@](C)(O)C[C@@H](C)CN(CCCNC(=O)/C=C/c2cnc3ccccc3c2)[C@H](C)[C@@H](O)[C@]1(C)O [Example 76, 9a-(3-{[(2E)-3-(Quinolin-3-yl)-2-propenoyl]amino}propyl)-9-deoxo-9-dihydro-9a-aza-9a-homoerythromycin A] |  |  | 0.2 to 1 (≈ 0.205 to 1.03 µM) | 0.2 to 1 (≈ 0.205 to 1.03 µM)
CC[C@H]1OC(=O)[C@H](C)[C@@H](O[C@H]2C[C@@](C)(OC)[C@@H](O)[C@H](C)O2)[C@H](C)[C@@H](O[C@@H]2O[C@H](C)C[C@H](N(C)C)[C@H]2O)[C@](C)(O)C[C@@H](C)CN(CCCNC(=O)Cc2ccccc2[N+](=O)[O-])[C@H](C)[C@@H](O)[C@]1(C)O.O=CO [Example 67, 9a-(3-{[(2-Nitrophenyl)acetyl]amino}propyl)-9-deoxo-9-dihydro-9a-aza-9a-homoerythromycin A Formiate Salt] | D (1000 < X ≦ 2500) | H (5000 < X ≦ 10000) |  | 
CCC1OC(=O)C(C)C(OC2CC(C)(OC)C(O)C(C)O2)C(C)C(OC2OC(C)CC(N(C)C)C2O)C(C)(O)CC(C)CN(CCCNC(=O)Cc2cccc(Cl)c2)C(C)C(O)C1(C)O.O=CO (stereo not shown) [Example 62, 9a-(3-{[(3-Chlorophenyl)acetyl]amino}propyl)-9-deoxo-9-dihydro-9a-aza-9a-homoerythromycin A Formiate Salt] | C (200 < X ≦ 1000) | C (200 < X ≦ 1000) |  | 
CC[C@H]1OC(=O)[C@H](C)[C@@H](O)[C@H](C)[C@@H](O)[C@](C)(O)C[C@@H](C)CN(CCCNc2ccnc3cc(Cl)ccc23)[C@H](C)[C@@H](O)[C@]1(C)O [Example 56] |  |  | 0.1 to 0.2 (≈ 0.157 to 0.313 µM) | < 0.1
CCC1OC(=O)C(C)C(OC2CC(C)(OC)C(O)C(C)O2)C(C)C(OC2OC(C)CC(N(C)C)C2O)C(C)(O)CC(C)CN(CCCNC(=O)Cc2ccccc2F)C(C)C(O)C1(C)O.O=CO (stereo not shown) [Example 69, 9a-(3-{[(2-Fluorophenyl)acetyl]amino}propyl)-9-deoxo-9-dihydro-9a-aza-9a-homoerythromycin A Formiate Salt] | C (200 < X ≦ 1000) | G (3500 < X ≦ 5000) |  | 
CC[C@H]1OC(=O)[C@H](C)[C@@H](O[C@H]2C[C@@](C)(OC)[C@@H](O)[C@H](C)O2)[C@H](C)[C@@H](O[C@@H]2O[C@H](C)C[C@H](N(C)C)[C@H]2O)[C@](C)(O)C[C@@H](C)CN(CCCNCc2ccc3ccccc3c2)[C@H](C)[C@@H](O)[C@]1(C)O [Example 54, 9a-{3-[(Naphtalen-2-yl-methyl)amino]propyl}-9-deoxo-9-dihydro-9a-aza-9a-homoerythromycin A] |  |  | < 0.1 | 0.1 to 0.2 (≈ 0.107 to 0.215 µM)
CC(=O)O.CC(=O)O.CCC1OC(=O)C(C)C(OC2CC(C)(OC)C(O)C(C)O2)C(C)C(OC2OC(C)CC(N(C)C)C2O)C(C)(O)CC(C)CN(CCCNCc2ccnc3ccccc23)C(C)C(O)C1(C)O (stereo not shown) [Example 78, 9a-{3-[(Quinolin-4-yl-methyl)amino]propyl}-9-deoxo-9-dihydro-9a-aza-9a-homoerythromycin A Diacetate Salt] | A (X ≦ 100) | C (200 < X ≦ 1000) |  | 
CCC1OC(=O)C(C)C(OC2CC(C)(OC)C(O)C(C)O2)C(C)C(OC2OC(C)CC(N(C)C)C2O)C(C)(O)CC(C)CN(CCCNC(=O)CCC(=O)c2ccccc2)C(C)C(O)C1(C)O.O=CO (stereo not shown) [Example 65, 9a-{3-[(4-Oxo-4-phenylbutanoyl)amino]propyl}-9-deoxo-9-dihydro-9a-aza-9a-homoerythromycin A Formiate Salt] | D (1000 < X ≦ 2500) | G (3500 < X ≦ 5000) |  | 
CCC1OC(=O)C(C)C(OC2CC(C)(OC)C(O)C(C)O2)C(C)C(OC2OC(C)CC(N(C)C)C2O)C(C)(O)CC(C)CN(CCCNC(=O)Cc2ccc(Cl)cc2)C(C)C(O)C1(C)O.O=CO (stereo not shown) [Example 63, 9a-(3-{[(4-Chlorophenyl)acetyl]amino}propyl)-9-deoxo-9-dihydro-9a-aza-9a-homoerythromycin A Formiate Salt] | C (200 < X ≦ 1000) | C (200 < X ≦ 1000) |  | 
CC(=O)O.CC(=O)O.CC(=O)O.CCC1OC(=O)C(C)C(OC2CC(C)(OC)C(O)C(C)O2)C(C)C(OC2OC(C)CC(N(C)C)C2O)C(C)(O)CC(C)CN(CCCNc2ccnc3cc(Cl)ccc23)C(C)C(O)C1(C)O (stereo not shown) [Example 77] | A (X ≦ 100) | A (X ≦ 100) |  | 
CC[C@H]1OC(=O)[C@H](C)[C@@H](O[C@H]2C[C@@](C)(OC)[C@@H](O)[C@H](C)O2)[C@H](C)[C@@H](O[C@@H]2O[C@H](C)C[C@H](N(C)C)[C@H]2O)[C@](C)(O)C[C@@H](C)CN(CCCNC(=O)C(Cc2ccc(F)cc2)NC(C)=O)[C@H](C)[C@@H](O)[C@]1(C)O.O=CO (stereo partly shown) [Example 60, 9a-{3-[(N-Acetyl-4-fluorophenylalanyl)amino]propyl}-9-deoxo-9-dihydro-9a-aza-9a-homoerythromycin A Formiate Salt] | D (1000 < X ≦ 2500) | H (5000 < X ≦ 10000) |  | 
